In general, EC50 refers to the midpoint of the concentration-response curve.

Drawing on US20120165304A1, “6,7,8,9-Tetrahydro-5H-1,4,7,10a-tetraaza-cyclohept[f]indene derivatives, pharmaceutical compositions containing these compounds, their use and processes for preparing them” (BOEHRINGER INGELHEIM INTERNATIONAL GMBH, priority 2008, published 2012), this text covers EC50 for 69 compounds.

This assay deals with human 5-HT2C receptor (Homo sapiens, UniProt P28335, I156V/I160V/N158S). Briefly: cell-based.
Sequence of human 5-HT2C receptor (P28335 33-458 I156V/N158S/I160V limits assumed): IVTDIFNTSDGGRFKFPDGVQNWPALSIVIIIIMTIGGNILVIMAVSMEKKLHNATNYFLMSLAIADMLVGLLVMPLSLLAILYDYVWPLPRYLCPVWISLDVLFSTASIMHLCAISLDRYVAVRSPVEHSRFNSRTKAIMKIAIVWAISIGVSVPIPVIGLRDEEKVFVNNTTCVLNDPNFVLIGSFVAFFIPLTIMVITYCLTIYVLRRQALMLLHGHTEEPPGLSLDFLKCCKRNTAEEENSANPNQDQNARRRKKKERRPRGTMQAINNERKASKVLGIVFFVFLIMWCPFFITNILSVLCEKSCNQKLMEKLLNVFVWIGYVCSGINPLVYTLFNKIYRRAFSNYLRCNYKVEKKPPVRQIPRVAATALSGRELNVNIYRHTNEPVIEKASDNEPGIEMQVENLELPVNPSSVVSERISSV
`c1cc2nc3c(c(N4CCCOCC4)n2n1)CCNCC3` [Example 1, 10-[1,4]Oxazepan-4-yl-6,7,8,9-tetrahydro-5H-1,4,7,10a-tetraaza-cyclohepta[f]indene] showed a concentration giving a half-maximal response (EC50) of 908 nM. Under `Cc1cc(OC2CN(c3c4c(nc5ccnn35)CCNCC4)C2)cc(C)n1` [Example 35.23] stands 105 nM; under `Cc1cnc(C2CN(c3c4c(nc5ccnn35)CCNCC4)C2)o1` [Example 10, 10-[3-(5-Methyl-oxazol-2-yl)-azetidin-1-yl]-6,7,8,9-tetrahydro-5H-1,4,7,10a-tetraaza-cyclohepta[f]indene], 846 nM. Under `CC1(C(=O)N2CCC3(CC2)OCc2ccccc23)CN(c2c3c(nc4ccnn24)CCNCC3)C1` [Example 32.5] stands 6550 nM; under `CC(C)CNC(=O)C1CN(c2c3c(nc4ccnn24)CCNCC3)C1` [Example 37.78], 82 nM. In turn, `c1ccc(CN2CCN(c3c4c(nc5ccnn35)CCNCC4)CC2)cc1` [Example 1.1] came in with an EC50 of 108 nM. Under `O=C(C1CN(c2c3c(nc4ccnn24)CCNCC3)C1)N1CCC2(CCCCC2)C1` [Example 31.48] stands 38 nM; under `Cc1coc(C2CN(c3c4c(nc5ccnn35)CCNCC4)C2)n1` [Example 13, 10-[3-(4-Methyl-oxazol-2-yl)-azetidin-1-yl]-6,7,8,9-tetrahydro-5H-1,4,7,10a-tetraaza-cyclohepta[f]indene], 628 nM.

`CC1(C)CCN(C(=O)C2CN(c3c4c(nc5c(Br)cnn35)CCNCC4)C2)CC1` [Example 31.138] came in with a half-maximal effective concentration (EC50) of 71 nM. The figure for `CC(C)CN(Cc1ccc(F)cc1)C(=O)C1CN(c2c3c(nc4ccnn24)CCNCC3)C1` [Example 31.198] is 1810 nM. As for `CN(CCc1ccc2ccccc2c1)C(=O)C1CN(c2c3c(nc4ccnn24)CCNCC3)C1` [Example 31.71], the concentration giving a half-maximal response (EC50) was 366 nM.

On to `CCn1c(C2CN(c3c4c(nc5ccnn35)CCNCC4)C2)nc2cc(F)ccc21` [Example 34.39], for which the EC50 amounted to 666 nM. For the compound `CCC1CCC(C)N(C(=O)C2CN(c3c4c(nc5ccnn35)CCNCC4)C2)C1` (stereo not drawn) [Example 31.184], the EC50 amounted to 287 nM.

In the case of `O=C(C1CN(c2c3c(nc4ccnn24)CCNCC3)C1)N1CCN(C2CCOCC2)CC1` [Example 37.31], the concentration giving a half-maximal response (EC50) was 7 nM. The figure for `CN(C)CCCNC(=O)C1CN(c2c3c(nc4ccnn24)CCN(C)CC3)C1` [Example 36.53] is 87 nM. Under `Fc1ccc(OCC2CN(c3c4c(nc5ccnn35)CCNCC4)C2)cc1` [Example 15, 10-[3-(4-Fluoro-phenoxymethyl)-azetidin-1-yl]-6,7,8,9-tetrahydro-5H-1,4,7,10a-tetraaza-cyclohepta[f]indene] stands 43 nM; under `Cc1cccc2[nH]c(C3CN(c4c5c(nc6ccnn46)CCNCC5)C3)nc12` [Example 34.5], 246 nM.

For the compound `O=C(C1CN(c2c3c(nc4ccnn24)CCNCC3)C1)N1CCC(N2CCCC2)CC1` [Example 37.5], the response was half-maximal at 2 nM (EC50). Turning to `CC1CNCCc2c1nc1ccnn1c2N1CCCCC1` (stereo not drawn) [Example 3, 5-Methyl-10-piperidin-1-yl-6,7,8,9-tetrahydro-5H-1,4,7,10a-tetraaza-cyclohepta[f]indene], the half-maximal effective concentration (EC50) stood at 1810 nM.

In turn, `COc1cccc(OC2CN(c3c4c(nc5ccnn35)CCNCC4)C2)c1` [Example 35.47] yielded an EC50 of 66 nM. The figure for `CN(CCc1ccccc1)C(=O)C1CN(c2c3c(nc4ccnn24)CCNCC3)C1` [Example 31.61] is 176 nM. The figure for `O=C(C1CN(c2c3c(nc4ccnn24)CCNCC3)C1)N1CCCC(c2cccc(F)c2)C1` (stereo not drawn) [Example 31.215] is 155 nM. The figure for `O=C(C1CN(c2c3c(nc4ccnn24)CCNCC3)C1)N1CCC(c2ccc(F)cc2F)CC1` [Example 31.114] is 38 nM. Consider `CN(Cc1c(Cl)cccc1Cl)C(=O)C1CN(c2c3c(nc4ccnn24)CCNCC3)C1` [Example 31.160], for which the EC50 stood at 458 nM. The figure for `CC1CCN(C(=O)C2CN(c3c4c(nc5ccnn35)CCN(C)CC4)C2)C1` (stereo not drawn) [Example 36.42] is 741 nM; for `COc1ccc2ccc(OC3CN(c4c5c(nc6ccnn46)CCNCC5)C3)cc2c1` [Example 35.11] it is 926 nM. The figure for `CC(C)C(NC(=O)C1CN(c2c3c(nc4ccnn24)CCNCC3)C1)C(F)(F)F` (stereo not drawn) [Example 37.104] is 106 nM. Under `COC1(C)CCN(C(=O)C2CN(c3c4c(nc5ccnn35)CCNCC4)C2)CC1` [Example 31.220] stands 55 nM; under `COc1ccc2cc(OC3CN(c4c5c(nc6ccnn46)CCNCC5)C3)ccc2c1` [Example 35.13], 1360 nM; under `Cc1ccc(F)c(OCC2CN(c3c4c(nc5ccnn35)CCNCC4)C2)c1F` [Example 15.24], 54 nM. On to `CN1CCc2nc3ccnn3c(N3CC(C(=O)N4CCN(C5CCCC5)CC4)C3)c2CC1` [Example 36.13], for which the concentration for a half-maximal effect (EC50) came to 114 nM.

Turning to `c1ccc2[nH]c(C3CN(c4c5c(nc6ccnn46)CCNCC5)C3)nc2c1` [Example 34], the concentration for a half-maximal effect (EC50) was determined as 611 nM. Compound `CN(Cc1ccc(Br)cc1)C(=O)C1CN(c2c3c(nc4ccnn24)CCNCC3)C1` [Example 31.80] had an EC50 of 30 nM.

As to `O=C(C1CN(c2c3c(nc4ccnn24)CCNCC3)C1)N1CC[C@@H]2CCCC[C@@H]2C1` [Example 31.131], it took 74 nM to reach a half-maximal effect (EC50). Consider `COC[C@H]1CCCN1c1c2c(nc3ccnn13)CCNCC2` [Example 1.12], for which the 50% effective concentration (EC50) worked out at 507 nM. Under `c1ccc(O[C@H]2CCN(c3c4c(nc5ccnn35)CCNCC4)C2)cc1` [Example 1.46] stands 582 nM; under `CN(C)CCCN(C)C(=O)C1CN(c2c3c(nc4ccnn24)CCN(C)CC3)C1` [Example 36.55], 87 nM. Under `O=C(C1CN(c2c3c(nc4ccnn24)CCNCC3)C1)N1CCC(C(F)(F)F)CC1` [Example 31.83] stands 8 nM. Under `CN(C)[C@H]1CC[C@H](NC(=O)C2CN(c3c4c(nc5ccnn35)CCNCC4)C2)CC1` [Example 37.98] stands 25 nM; under `CN1CCc2nc3ccnn3c(N3CC(C(=O)N[C@H]4CC[C@H](N(C)C)CC4)C3)c2CC1` [Example 36.16], 282 nM; under `COc1cccc(OC2CN(c3c4c(nc5ccnn35)CCNCC4)C2)c1Cl` [Example 35.33], 90 nM. `c1ccc(OC2CN(c3c4c(nc5ccnn35)CCNCC4)C2)cc1` [Example 1.3] displayed an EC50 of 18 nM.

As to `CC(C)N1CCN(C(=O)C2CN(c3c4c(nc5ccnn35)CCN(C)CC4)C2)CC1` [Example 36.6], the half-maximal effective concentration (EC50) came out at 67 nM. Under `CN(Cc1ccc(C(C)(C)C)cc1)C(=O)C1CN(c2c3c(nc4ccnn24)CCNCC3)C1` [Example 31.162] stands 187 nM; under `O=C(NC1CCC(C(F)(F)F)CC1)C1CN(c2c3c(nc4ccnn24)CCNCC3)C1` (stereo not drawn) [Example 37.60], 49 nM. Under `O=C(C1CN(c2c3c(nc4ccnn24)CCNCC3)C1)N1CC[C@H](Oc2ccccc2)C1` [Example 31.212] stands 34 nM; under `CN(C)CCCN(C)C(=O)C1CN(c2c3c(nc4ccnn24)CCNCC3)C1` [Example 37.41], 8 nM; under `O=C(C1CN(c2c3c(nc4ccnn24)CCNCC3)C1)N1CCC(O)(c2cc(F)cc(F)c2)CC1` [Example 31.195], 7 nM. The compound `CCN1CCCN(C(=O)C2CN(c3c4c(nc5ccnn35)CCN(C)CC4)C2)CC1` [Example 36.50] displayed an EC50 of 81 nM. As for `CN(C(=O)C1CN(c2c3c(nc4ccnn24)CCNCC3)C1)C1CCCCC1` [Example 31.179], the concentration for a half-maximal effect (EC50) worked out at 1690 nM.

The compound `O=C(NCC1CCCCO1)C1CN(c2c3c(nc4ccnn24)CCNCC3)C1` (stereo not drawn) [Example 37.55] returned a concentration giving a half-maximal response (EC50) of 66 nM.

Compound `FC(F)(F)c1cccc(N2CCN(c3c4c(nc5ccnn35)CCNCC4)CC2)c1` [Example 7.3] displayed an EC50 of 484 nM.

On to `CC(NC(=O)C1CN(c2c3c(nc4ccnn24)CCNCC3)C1)C(C)(C)C` (stereo not drawn) [Example 37.111], for which the concentration for a half-maximal effect (EC50) came to 139 nM.

The compound `COc1ccc(OC2CN(c3c4c(nc5ccnn35)CCNCC4)C2)cc1` [Example 1.10] displayed a 50% effective concentration (EC50) of 96 nM. Under `O=C(C1CN(c2c3c(nc4ccnn24)CCNCC3)C1)N1CCCC1` [Example 31.64] stands 199 nM; under `CCC#CCNC(=O)C1CN(c2c3c(nc4ccnn24)CCNCC3)C1` [Example 37.52], 61 nM. Under `CN(C(=O)C1CN(c2c3c(nc4ccnn24)CCNCC3)C1)C1CCCC1` [Example 31.12] stands 820 nM; under `CN1CCN(C(=O)C2CN(c3c4c(nc5ccnn35)CCNCC4)C2)CC1` [Example 37.35], 4 nM; under `Cc1cnn2c(N3CC(C(=O)N4CCC(Oc5ccccc5)CC4)C3)c3c(nc12)CCNCC3` [Example 31.244], 62 nM. Take `O=C(C1CN(c2c3c(nc4ccnn24)CCNCC3)C1)N1CCC(C(F)(F)F)C1` (stereo not drawn) [Example 31.95]: the 50% effective concentration (EC50) is 41 nM. `FC1(F)CN(c2c3c(nc4ccnn24)CCNCC3)C1` [Example 1.4] had an EC50 of 2420 nM. The figure for `Cc1ccccc1OCC1CN(c2c3c(nc4ccnn24)CCNCC3)C1` [Example 15.1] is 6 nM; for `CN1CCc2nc3ccnn3c(N3CC(C(=O)N4CCC5(CCC5)C4)C3)c2CC1` [Example 36.34] it is 885 nM; for `CN1CCc2nc3ccnn3c(N3CC(C(=O)NC4CCC(C)(C)CC4)C3)c2CC1` [Example 36.39] it is 911 nM. Consider `CCc1cnn2c(N3CC(Oc4ccc(OC)cc4)C3)c3c(nc12)CCNCC3` [Example 25.1], for which the EC50 is 77 nM. Under `O=C(C1CN(c2c3c(nc4ccnn24)CCNCC3)C1)N1CCCC(c2ccccc2)(c2ccccc2)C1` [Example 31.221] stands 625 nM. Under `COc1ccc(C(O)C2CN(c3c4c(nc5ccnn35)CCNCC4)C2)cc1` (stereo not drawn) [Example 19, (4-Methoxy-phenyl)-[1-(6,7,8,9-tetrahydro-5H-1,4,7,10a-tetraaza-cyclohepta[f]inden-10-yl)-azetidin-3-yl]-methanol] stands 139 nM; under `O=C(C1CCCN(c2c3c(nc4ccnn24)CCNCC3)C1)N1CCC(C2CCCCC2)CC1` (stereo not drawn) [Example 1.58], 4710 nM; under `c1ccc(C(OC2CCCN(c3c4c(nc5ccnn35)CCNCC4)C2)c2ccccc2)cc1` (stereo not drawn) [Example 1.37], 1300 nM.
